Consider 5 compounds from patent publication US11484598B1, “Pleuromulin rhein ester with anti-drug resistant bacteria activity and a method of preparing the same” (XI'AN KANGYUANSHENG BIOMEDICAL TECHNOLOGY CO., LTD., priority 2021, dated 2022).

Type in all cases: cell-based
Experiment [1] deals with Carbapenem-resistant Acinetobacter baumannii CR-AB 18-184. The experiment in a line: MIC by microbroth dilution method, CR-AB 18-184. To be noted: for Minimum bacteriostatic concentration: strain CR-AB 18-184, 37° C., 20-22 hours. As for the experimental part: (§1) The minimal inhibitory concentration (MIC) of the compounds as determined by microbroth dilution method was measured with ceftazidime and vancomycin as positive control.
(§2) The experimental strains included drug-resistant gram-positive bacteria: methicillin-resistant Staphylococcus aureus MRSA 18-575; drug-resistant gram-negative bacteria: multi-drug-resistant Pseudomonas aeruginosa MDR-PA 18-126, 18-756, Carbapenem-resistant Acinetobacter baumannii CR-AB 18-184, 18-560. The experimental strains were all donated by Huashan Hospital Affiliated to Fudan University (Fudan University Antibiotic Research Institute), and used after being identified by conventional methods.
(§3) Preparation of MHB medium: 20.0 g NMB medium was added to 1 L distilled water, boiled until completely dissolved, packed in conical bottles and sterilized at 121° C. for 15 min.
(§4) The experimental strain was cultured to the logarithmic growth phase: under aseptic condition, the experimental strain was inoculated into 100 mL NMB medium and incubated in a constant temperature and humidity incubator at 37° C. for 20-22 hours.
(§5) Preparation of storage solution: weighing the sample to be tested, dissolving it with 1% DMSO solution, preparing a storage solution with a concentration of 2560 μg/mL, weighing a positive reference substance, dissolving it with aseptic distilled water, and configuring a stock solution with a concentration of 2560 μg/mL.
(§6) Preparation of bacterial suspension: under aseptic condition, the experimental strains cultured to logarithmic growth phase were adjusted to 0.5 MCF turbidity standard with MHB medium and diluted according to 1:10, and the bacterial suspension with concentration of 10^6 CFU/mL was prepared for standby.
(§7) Stock solution dilution and inoculation of experimental strains: under aseptic conditions, diluting the stock solution to a solution of 256 μg/mL, taking a sterile 96-well plate, adding 100 μL of MHB medium to each well except for the first and second wells; adding 100 μL of positive control solution to the first well, and adding 100 μL of compound sample solution to the second and third wells; mixing the sample solution in the 3 wells with the medium, and then pipetting 100 μL to the 4th well, and then pipetting 100 μL to the 5th well after mixing, and then diluting to the 9th well in a series of times, and drawing 100 μL from the 9th well and discard, the 10th well is a growth control without drugs; then, adding 100 μL of the above-prepared bacterial suspension to each well to make the final bacterial concentration of each well 5×10^5 CFU/mL; the positive control concentration was 128 μg/mL, the concentrations of the sample solution were 128, 64, 32, 16, 8, 4, 2, 1 μg/mL.
(§8) Incubation: covering the 96-well plate inoculated with the experimental strains, and incubating in a constant temperature and humidity box at 37° C. for 20-22 hours.
(In general: Broth dilution looks for growth in wells or tubes with falling amounts of substance.)

Experiment [2] relates to multi-drug-resistant Pseudomonas aeruginosa MDR-PA 18-756. The experiment can be described thus: MIC by microbroth dilution method, MDR-PA 18-756. The note with it: strain MDR-PA 18-756; 37° C., 20-22 hours. As for the experimental part: as §1, §2, §3, §4, §5, §6
as §7, with “μg/mL. […]” for “μg/mL.”

Experiment [3] relates to multi-drug-resistant Pseudomonas aeruginosa MDR-PA 18-126. The experiment can be described thus: MIC by microbroth dilution method, MDR-PA 18-126. The note with it: for Minimum bacteriostatic concentration: strain MDR-PA 18-126, 37° C., 20-22 hours. Here is the method:
as §1, §2, §3, §4, §5, §6, §7, §8

For experiment [4], the system named is methicillin-resistant Staphylococcus aureus MRSA 18-575. The experiment in a line: MIC by microbroth dilution method, MRSA 18-575. The note with it: for Minimum bacteriostatic concentration: strain MRSA 18-575, 37° C., 20-22 hours. Here is the method: as §1, §2, §3, §4, §5, §6, §7, §8
The subject of experiment [5] is Carbapenem-resistant Acinetobacter baumannii CR-AB 18-560. The experiment in a line: MIC by microbroth dilution method, CR-AB 18-560. The note with it: strain CR-AB 18-560; 37° C., 20-22 hours. Here is the method:
as §1, §2, §3, §4, §5, §6
as §7, with “μg/mL. […]” for “μg/mL.”

Another experiment deals with drug-resistant bacteria. The experiment can be described thus: Antibacterial activity test, summary over all experimental strains. To be noted: text summary of FIG. 1-5 and Table 1. As for the experimental part: as §1, §2, §3
The experimental strain was cultured to the logarithmic growth phase: under aseptic condition, the experimental strain was inoculated into 100 mL NMB medium and incubated in a constant temperature and humidity incubator at 37° C. for 20-22 hours. […]

Each structure is given as a SMILES string. ≈ marks a conversion by molar mass, not a printed value.

`CC(C)(O/N=C(\C(=O)N[C@@H]1C(=O)N2C(C(=O)[O-])=C(C[n+]3ccccc3)CS[C@H]12)c1csc(N)n1)C(=O)O` [Ceftazidime]: the Minimum bacteriostatic concentration in experiment [1], in experiment [2], in experiment [3], in experiment [4] and in experiment [5] was 128 µg/mL in each case.

For the compound `C=C[C@@]1(C)C[C@H](OC(=O)COC(=O)c2cc(O)c3c(c2)C(=O)c2cccc(O)c2C3=O)[C@]2(C)C3C(=O)CC[C@]3(CC[C@@H]2C)[C@H](C)[C@H]1O` (some centres unmarked) [Pleuromulin rhein ester], the MIC in experiment [1] (Acinetobacter baumannii, CR-AB, strain number not stated (64 matches 18-184)) amounted to 64 µg/mL (≈ 99.3 µM); in experiment [3] (Pseudomonas aeruginosa, MDR-PA, strain number not stated (64 matches 18-126)), 64 µg/mL (≈ 99.3 µM); in experiment [4] (Staphylococcus aureus, MRSA), 64 µg/mL (≈ 99.3 µM). In addition, the Minimum bacteriostatic concentration in experiment [1] is 64 µg/mL; in experiment [2], >128 µg/mL; in experiment [3], 64 µg/mL; in experiment [4] it was 64 µg/mL; in experiment [5], >128 µg/mL.

In the case of `C=C[C@]1(C)C[C@@H](OC(=O)CO)[C@]2(C)[C@H](C)CC[C@]3(CCC(=O)[C@H]32)[C@@H](C)[C@@H]1O` [Pleuromulin], the Minimum bacteriostatic concentration in experiment [1], in experiment [2], in experiment [3], in experiment [4] and in experiment [5] was >128 µg/mL each time. In the experiment on drug-resistant bacteria, the “inhibitory effect on drug-resistant bacteria” value was “no inhibitory effect”.

In the case of `O=C(O)c1cc(O)c2c(c1)C(=O)c1cccc(O)c1C2=O` [Rhein], the Minimum bacteriostatic concentration in experiment [1], in experiment [2], in experiment [3], in experiment [4] and in experiment [5] was >128 µg/mL each time. Further, the “inhibitory effect on drug-resistant bacteria” value in the experiment on drug-resistant bacteria is given as “no inhibitory effect”.

With `CN[C@H](CC(C)C)C(=O)N[C@H]1C(=O)N[C@@H](CC(N)=O)C(=O)N[C@H]2C(=O)N[C@H]3C(=O)N[C@H](C(=O)N[C@H](C(=O)O)c4cc(O)cc(O)c4-c4cc3ccc4O)[C@H](O)c3ccc(c(Cl)c3)Oc3cc2cc(c3O[C@@H]2O[C@H](CO)[C@@H](O)[C@H](O)[C@H]2O[C@H]2C[C@](C)(N)[C@H](O)[C@H](C)O2)Oc2ccc(cc2Cl)[C@H]1O` [Vancomycin], in experiment [4], the Minimum bacteriostatic concentration stood at 512 µg/mL.

The MIC is the smallest concentration in the dilution series that meets the test's criterion for growth inhibition.
